{"source": "patent US20220062291A1", "about": "“COMPOSITIONS AND METHODS OF TREATING CANCERS BY ADMINISTERING A PHENOTHIAZINE-RELATED DRUG THAT ACTIVATES PROTEIN PHOSPHATASE 2A (PP2A) WITH REDUCED INHIBITORY ACTIVITY TARGETED TO THE DOPAMINE D2 RECEPTOR AND ACCOMPANYING TOXICITY” (DANA-FARBER CANCER INSTITUTE, INC., priority 2018, published 2022)", "key": {"[1]": {"target": "T1, PP2A (purified PPP2R1A, PPP2CA and PPP2R5E subunits) (Homo sapiens, UniProt P30153+P67775+Q16537)", "T1 construct": "made in house; host or cells: Hi5 insect cells (baculovirus, pAC8 vectors; virus produced in Sf9)", "T1 sequence (P30153 whole entry)": "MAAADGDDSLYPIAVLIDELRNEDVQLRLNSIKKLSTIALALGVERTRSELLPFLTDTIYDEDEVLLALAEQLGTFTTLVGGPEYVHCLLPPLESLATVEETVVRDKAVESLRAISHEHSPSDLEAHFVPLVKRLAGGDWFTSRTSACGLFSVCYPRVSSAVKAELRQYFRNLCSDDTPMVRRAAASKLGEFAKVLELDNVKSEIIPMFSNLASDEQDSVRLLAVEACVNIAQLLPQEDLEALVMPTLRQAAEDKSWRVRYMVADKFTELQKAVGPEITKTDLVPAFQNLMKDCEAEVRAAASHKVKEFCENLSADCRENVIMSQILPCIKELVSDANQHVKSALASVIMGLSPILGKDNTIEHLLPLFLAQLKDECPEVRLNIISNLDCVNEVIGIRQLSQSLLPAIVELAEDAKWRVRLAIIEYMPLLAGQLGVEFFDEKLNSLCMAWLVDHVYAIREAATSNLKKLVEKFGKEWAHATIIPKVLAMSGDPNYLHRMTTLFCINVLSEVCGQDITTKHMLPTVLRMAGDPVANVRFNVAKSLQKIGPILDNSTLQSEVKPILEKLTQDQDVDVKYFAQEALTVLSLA", "T1 sequence (P67775 whole entry)": "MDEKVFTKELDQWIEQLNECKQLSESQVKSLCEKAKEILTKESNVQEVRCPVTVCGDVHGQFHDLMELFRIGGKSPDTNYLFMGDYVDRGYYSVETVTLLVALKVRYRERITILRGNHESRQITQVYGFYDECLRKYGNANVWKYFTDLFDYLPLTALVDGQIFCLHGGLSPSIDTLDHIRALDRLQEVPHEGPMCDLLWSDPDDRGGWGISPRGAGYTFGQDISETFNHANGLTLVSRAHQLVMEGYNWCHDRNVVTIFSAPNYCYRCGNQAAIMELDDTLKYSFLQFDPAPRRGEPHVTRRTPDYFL", "T1 sequence (Q16537 whole entry)": "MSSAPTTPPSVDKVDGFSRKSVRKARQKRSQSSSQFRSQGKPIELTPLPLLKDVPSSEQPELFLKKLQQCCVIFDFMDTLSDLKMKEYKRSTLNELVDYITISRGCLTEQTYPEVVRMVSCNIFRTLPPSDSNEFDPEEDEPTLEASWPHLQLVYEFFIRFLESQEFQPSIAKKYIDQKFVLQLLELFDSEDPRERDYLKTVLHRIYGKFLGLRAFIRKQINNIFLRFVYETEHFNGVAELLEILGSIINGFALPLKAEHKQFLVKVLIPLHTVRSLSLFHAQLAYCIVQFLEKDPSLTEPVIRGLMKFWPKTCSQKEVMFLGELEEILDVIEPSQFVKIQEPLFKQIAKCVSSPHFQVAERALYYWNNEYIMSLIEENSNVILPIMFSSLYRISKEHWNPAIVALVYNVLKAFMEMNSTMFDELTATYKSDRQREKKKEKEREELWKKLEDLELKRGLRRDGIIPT", "test": "PP2A Immunoprecipitation Phosphatase Assay with purified subunits", "assay_type": "biochemical", "protocol": "The data is presented as mean±s.d. (n=3, biological replicates). *P<0.05 by student's t-test.\nPhosphatase activity of PP2A was measured using the PP2A Immunoprecipitation Phosphatase Assay Kit (Merck Millipore®) (FIG. 21A-FIG. 21B). […] The proteins were subsequently incubated with protein A agarose slurry and 4 μg of anti-PPP2CA antibody (Merck Millipore®, #05-421, clone 1D6) at 4° C. with constant rocking for one hour. Agarose-bound immune complexes were collected, then washed with 700 μl TBS (3 times) and 500 μl Ser/Thr buffer (final wash), before resuspending them in 20 μl Ser/Thr buffer. A phosphopeptide (amino acid sequence: K-R-pT-I-R-R) was added as a substrate for PPP2CA, and samples were incubated at 30° C. in a shaking incubator for 10 minutes. Supernatants (25 μl) were then transferred onto 96-well plate, and released phosphate was measured by adding 100 μl malachite green phosphate detection solution. Absorbance was read by SpectraMax® M5 Multi-Mode Microplate Reader (Molecular Devices LLC) at 650 nm. Phosphate concentrations were calculated from a standard curve generated from serial dilutions of standard phosphate solution (0-2,000 pmol)."}, "[2]": {"target": "T2, human dopamine receptor D2 (DRD2) (Homo sapiens, UniProt P14416)", "T2 construct": "expressed in transfected cells; host or cells: HEK293T (pcDNA3 vectors)", "T2 sequence (P14416 whole entry)": "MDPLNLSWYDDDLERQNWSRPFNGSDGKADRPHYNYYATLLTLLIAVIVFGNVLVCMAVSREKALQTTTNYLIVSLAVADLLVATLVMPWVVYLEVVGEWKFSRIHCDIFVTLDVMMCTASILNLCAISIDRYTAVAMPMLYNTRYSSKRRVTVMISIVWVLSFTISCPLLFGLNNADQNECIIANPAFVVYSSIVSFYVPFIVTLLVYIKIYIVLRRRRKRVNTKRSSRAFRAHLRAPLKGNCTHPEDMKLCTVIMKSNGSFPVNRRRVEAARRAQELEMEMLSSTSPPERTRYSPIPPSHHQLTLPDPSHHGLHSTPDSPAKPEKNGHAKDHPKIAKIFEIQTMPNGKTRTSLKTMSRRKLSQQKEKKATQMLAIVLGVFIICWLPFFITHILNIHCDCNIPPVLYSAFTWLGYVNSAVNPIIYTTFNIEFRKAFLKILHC", "test": "Dopamine receptor D2 inhibition assay (SRE-luciferase reporter in HEK293T cells)", "assay_type": "cell-based", "conditions": "for inhibitory activity on DRD2: 0.5, 1, 2 and 4 μM for three hours with 2 μM dopamine", "from_the_text": "(§1) The human dopamine receptor D2 (DRD2) and modified murine Gq5i cDNAs were inserted into pcDNA3 expression vectors. After verifying the PCR products by DNA sequencing, DRD2, Gq5i and the PathDetect pSRE-Luc Cis-Reporter Plasmid (#219080, Agilent Technologies) were transfected to HEK293T cells. As previously reported, Gq5i enables Gi/o-coupled receptor activity to be detected using a serum response element (SRE)-luciferase reporter gene (See, Conklin et al., Nature 363(6426):274-6 (1993); Al-Fulaij et al., J. Pharmacol. Exp. Ther. 321(1):298-307 (2007)). These cells were starved in FCS-free DMEM medium for six hours before incubating them with 2 μM dopamine hydrochloride (Sigma Aldrich) together with each of the compound at 0, 0.5, 1, 2 and 4 μM for three hours. The reporter activity was measured using Pierce™ Firefly Luciferase Glow Assay Kit (Thermo Fisher Scientific).\nFor IC50 calculation, KOPT-K1 cells were treated with each of the compounds at various concentrations for 72 hours, followed by the determination of viable cell numbers with PrestoBlue® cell viability reagent. For the PP2A phosphatase activity assay, KOPT-K1 cells were treated with each of the compounds at 10 μM for 3 hours before phosphatase activity was measured. Dopamine D2 receptor activity was monitored in HEK293T cells coexpressing the dopamine D2 receptor, modified G protein and SRE luciferase reporter. Cells were treated with each of the compound at 10 μM for 3 hours, then lysed for the luciferase reporter assay.\nas §1, with “D2” for “D2 (DRD2)”, “363(6426):274-276” for “363(6426):274-6”, “0.5” for “0, 0.5, 1, 2 and 4”"}, "[3]": {"test": "Movement disorder in free-swimming zebrafish embryos", "assay_type": "in vivo", "conditions": "five days", "from_the_text": "Note that the embryos were not anesthetized. Scale bar: 0.1 mm."}, "[4]": {"tested_on": "KOPT-K1 cells", "test": "Survival of NSG mice xenotransplanted with KOPT-K1 cells", "assay_type": "in vivo, NSG (NOD/Scid/IL2Rγnull) mice", "conditions": "2.5 mg/kg/day, oral, from day 10", "from_the_text": "At day one, 1×10^6 KOPT-K1 cells were intravenously injected into each mouse via its tail veins."}, "[5]": {"tested_on": "KOPT-K1 cells", "test": "Cell cycle status by PI flow cytometry", "assay_type": "cell-based, human", "conditions": "24 hours", "protocol": "Relative DNA content of cells in each of the samples was determined by measuring PI (propidium iodide) staining using flow cytometry. The results are illustrated in FIG. 31A-FIG. 31B.\nRelative DNA content of cells in each of the samples was determined as described above."}, "[6]": {"target": "T3, PP2A subunits in KOPT-K1 cell lysates (Homo sapiens, UniProt P30153+P67775+Q16537)", "T3 construct": "are endogenously expressed by KOPTK1 cells; endogenous in cells; host or cells: KOPT-K1 T-ALL cells / lysates", "T3 sequence (P30153 whole entry)": "as the sequence (P30153 whole entry) above", "T3 sequence (P67775 whole entry)": "as the sequence (P67775 whole entry) above", "T3 sequence (Q16537 whole entry)": "as the sequence (Q16537 whole entry) above", "test": "Cellular thermal shift assay (CETSA), PP2A subunits", "assay_type": "binding", "conditions": "PPZ at 10 μM, one hour", "from_the_text": "The cell lysates were then ultra-centrifuged to precipitate the aggregated pool of the protein, followed by quantification of the remaining soluble protein fraction by immunoblotting with antibodies specific to each of the PP2A subunits.\nA similar experiment was set up to examine target engagement specificity of iPAP1 to PP2A subunits in KOPT-K1 cells (FIG. 18G-FIG. 18L). […] A western blot of the KOPT-K1 cell lysates is illustrated in FIG. 19B."}, "[7]": {"tested_on": "α and β tubulins in KOPT-K1 cell lysates", "test": "Cellular thermal shift assay (CETSA), tubulins", "assay_type": "binding, human", "protocol": "Data are presented as means±s.d. (n=3, biological replicates). The quantitation of levels α and β tubulins detected by specific antibodies was determined using western blotting (FIG. 19E). Alpha (α) and tubulin levels were quantified during CETSA by Image J software of KOPT-K1 cell lysates treated or untreated with iPAP1 at various temperatures for 3 minutes. […] The CETSA curves for KOPT-K1 cell lysates with and without the addition of iPAP1 after incubation for 3 minutes are shown in FIG. 19F and FIG. 19G. […] Data are presented as means±s.d. (n=3, biological replicates). The quantitation of levels α and β tubulins detected by specific antibodies using western blotting (FIG. 19H). α and β tubulin levels were quantified during CETSA by Image J software of KOPT-K1 cell lysates treated or untreated with iPAP1 at various temperature for 3 minutes."}, "[8]": {"tested_on": "MYBL2 Ser241 in KOPT-K1 cells", "test": "Phosphoproteomics analysis", "assay_type": "cell-based, human", "conditions": "3 hours"}}, "note": "“Also recorded” adds a separate entry of the source.", "data": [{"smiles": "OCCN1CCN(CCCN2c3ccccc3Sc3ccc(Cl)cc32)CC1", "note": "[PPZ, perphenazine, reference compound]", "values": [{"measurement": "phosphatase activity of PP2A assembled from purified PPP2R1A, PPP2CA and PPP2R5E", "setting": "[1]; one hour at room temperature", "result": "Phosphatase activity increased with increasing concentrations of PPZ"}, {"measurement": "inhibitory activity on DRD2", "setting": "[2]", "result": "strong inhibitory activity on DRD2 at 0.5 μM; also recorded: strong inhibitory activity of DRD2 activity at concentrations as low as 0.5 μM"}, {"measurement": "swimming behaviour / movement disorder", "setting": "[3]; 5 μM", "result": "exhibited movement disorders and swam upside down or on their sides"}, {"measurement": "overall survival", "setting": "[4]", "result": "did not show any survival advantage over the control"}, {"measurement": "cell cycle status", "setting": "[5]; 10 μM and 20 μM", "result": "induced significant G2/M phase arrest"}, {"measurement": "thermal stabilization of PP2A subunits", "setting": "[6]", "result": "significantly enhanced stabilization of PPP2R1A, PPP2CA and PPP2R5E"}, {"measurement": "protection of α or β tubulins from thermal degradation", "setting": "[7]", "result": "did not protect α or β tubulins from thermal degradation"}, {"measurement": "phosphorylation of MYBL2", "setting": "[8]; 10 μM", "result": "completely dephosphorylated at Ser241"}]}, {"smiles": "COc1ccc(C(=O)N2c3ccccc3Sc3ccc(Cl)cc32)cc1", "note": "[iPAP1]", "values": [{"measurement": "phosphatase activity of PP2A assembled from purified PPP2R1A, PPP2CA and PPP2R5E", "setting": "[1]; one hour at room temperature", "result": "the phosphatase activity of PP2A was increased upon iPAP1 treatment"}, {"measurement": "PP2A activated at lower molar concentrations than PPZ", "setting": "[1]; purified subunits", "result": "~10", "unit": "fold"}, {"measurement": "equivalent PP2A activation activity at lower concentrations compared to PPZ", "setting": "[1]; purified subunits 200 ng each, one hour at room temperature", "result": "~10", "unit": "times"}, {"measurement": "inhibitory activities on DRD2", "setting": "[2]; 0.5 μM for three hours with 2 μM dopamine", "result": "did not show inhibitory activities on DRD2"}, {"measurement": "inhibitory activity against DRD2 compared to PPZ", "setting": "[2]; 10 μM for three hours", "result": "~1", "unit": "%"}, {"measurement": "inhibitory activity on DRD2", "setting": "[2]", "result": "no inhibitory activity of DRD2 signaling at concentrations up to 4 μM"}, {"measurement": "DRD2 inhibitory activity as share of the activity of PPZ", "setting": "[2]; 0.5 to 4 μM", "result": "less than 1%"}, {"measurement": "less active in inhibiting DRD2 than PPZ", "setting": "[2]; multiple molar concentrations", "result": "more than 100 fold"}, {"measurement": "swimming behaviour / movement disorder", "setting": "[3]; 2 μM", "result": "swam upright"}, {"measurement": "overall survival", "setting": "[4]", "result": "significantly extended the overall survival period"}, {"measurement": "cell cycle status", "setting": "[5]; 1 μM and 2 μM", "result": "induced significant G2/M phase arrest"}, {"measurement": "thermal stabilization of PP2A subunits", "setting": "[6]", "result": "protection of the PP2A subunits from thermal degradation similar to PPZ"}, {"measurement": "protection of α or β tubulins from thermal degradation", "setting": "[7]", "result": "did not protect α or β tubulins from thermal degradation"}, {"measurement": "phosphorylation of MYBL2", "setting": "[8]; 1 μM", "result": "completely dephosphorylated at Ser241"}]}]}
